Assays:
[1] = PK and oral bioavailability studies in rats; conditions: 20 mg/Kg (body weight), IV or PO
[2] = system: 3CLpro of NV, MD145, MNV-1; assay type: biochemical, norovirus; conditions: optimized FRET-based protease assay
MNV-1 = MNV-1 passaged in the presence of the drug
human norovirus (HuNoV) = experiment: Gnotobiotic pig model of human norovirus infection, first trial; assay type: in vivo, gnotobiotic (Gn) pigs
Text: We investigated if fecal norovirus shedding in human norovirus-inoculated gnotobiotic (Gn) pigs is altered the by treatment with GC376. […] On day 2 after antiviral treatment, they were inoculated orally with 1.0×10^10 genome equivalent (GE) of Human norovirus (GII.12 HS206). Rectal swabs were collected daily from each animal throughout the experiment, and fecal virus shedding and clinical signs were monitored daily until virus was not detectable by real-time qRT-PCR. The Table below summarizes the results.

TGEV 3CL protease = TGEV 3CL protease (Porcine transmissible gastroenteritis coronavirus, UniProt P0C6Y5); experiment: FRET-based protease assay, TGEV 3CL protease (Example 5); assay type: biochemical, TGEV Miller strain; conditions: compound at 50 μM final concentration
Text: The 3CL proteases are highly conserved among all coronaviruses, and feline coronavirus 3CL protease is closely related TGEV 3CL protease. Therefore we cloned and expressed the TGEV 3CL protease for the FRET assay. The cDNA encoding the full length of 3CL protease of TGEV Miller strain was amplified with RT-PCR as previously described. The primers contained the nucleotide sequence of the 3CL protease for cloning as well as the nucleotides for 6 Histidine in the forward primer. The amplified product was subcloned to pET-28a(+) vector (GenScript, Piscataway, N.J.). The expression and purification of the 3CL protease was performed with a standard method described previously by our lab (Chang et al., 2012b; Takahashi et al., 2012; Tiew et al., 2011).
Our protease inhibitor compounds and commercial cathepsin inhibitors CA074-Me and E64d were prepared in DMSO as stock solutions (10 mM), and further diluted in assay buffer consisting of 20 mM HEPES, 0.4 mM EDTA, 30% glycerol, 120 mM NaCl, and 4 mM DTT at pH 6. […] TGEV 3CL protease at a final concentration of 0.1˜0.2 μM and the substrate (Dabcyl-[…]-Edans; SEQ ID NO:2) at 10 μM were used for the studies. The substrate was purchased from Bachem Americas, Inc (Torrance, Calif.). Compounds at various concentrations (0˜50 μM) were pre-incubated with TGEV 3CL protease in 25 μl for 30 min at 37° C., and the same volume of substrate was added to a 96-well black plate. The mixtures were then incubated at 37° C. for 60 min, and fluorescence readings were obtained on a microplate reader at 360 nm excitation and 480 nm emission wavelengths. The relative fluorescence units (RFU) were calculated by subtracting background (substrate control well without protease) from the fluorescence readings. The dose-dependent FRET inhibition curves were fitted with variable slope (four parameters) using GraphPad Prism software (La Jolla, Calif.) in order to determine the compound concentration that gives a half-maximum response (IC50).

[3] = system: human norovirus (GII.12 HS206); experiment: Gnotobiotic pig model of human norovirus infection, repeat at 100 mg/kg/day; assay type: in vivo; conditions: Gn pigs
Text: After antiviral treatment or HuNoV inoculation, clinical signs and fecal virus shedding were monitored daily through day 14.

HAV = experiment: Cell culture system, HAV replication in FRhK-4 cells (Example 3); assay type: cell-based, hepatitis A virus
[4] = Gn pigs, oral 25 mg/kg twice a day 10 days then approx. 12.5 mg/kg twice a day 5 days
[5] = same regimen, detection limit 4.7 log10 GE/ml
[6] = oral 100 mg/kg once a day for 5 days

TGEV 3CL protease, sequence (P0C6Y5 2879-3180): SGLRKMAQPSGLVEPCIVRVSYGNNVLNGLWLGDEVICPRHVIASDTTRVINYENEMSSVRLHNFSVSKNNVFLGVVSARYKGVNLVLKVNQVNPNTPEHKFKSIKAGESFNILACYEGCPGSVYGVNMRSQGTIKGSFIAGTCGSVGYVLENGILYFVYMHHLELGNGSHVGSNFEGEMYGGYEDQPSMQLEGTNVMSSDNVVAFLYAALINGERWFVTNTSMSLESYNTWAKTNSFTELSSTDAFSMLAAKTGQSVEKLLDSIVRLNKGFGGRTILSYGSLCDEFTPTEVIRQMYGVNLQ

Compound: CC(C)C[C@H](NC(=O)OCc1ccccc1)C(=O)N[C@@H](C[C@@H]1CCNC1=O)C(O)S(=O)(=O)[O-].[Na+] (some centres unmarked) [GC376]
- oral bioavailability, % F [1]: 4 % F
- effect on the activity of 3CLpro of NV, MD145, MNV-1 (in words) [2]: highly effective
- increase of IC50 at passage number 15 (MNV-1): up to 10 fold
- Mean duration of virus shedding, Tx (+) at PIDs 1-13 (human norovirus (HuNoV); [4]): 7.5
- Mean onset of virus shedding (PID) (human norovirus (HuNoV); [4]): 2.3 PID
- effect of oral treatment on virus shedding compared to untreated animals (in words) (human norovirus (HuNoV); HuNoV-inoculated Gn pigs): significantly reduced the duration of virus shedding
- Overall duration of virus shedding at PID1-27 (human norovirus (HuNoV); same regimen): 7.5
- Mean duration of virus shedding, Tx (−) at PIDs 14-27 (human norovirus (HuNoV); same regimen, after treatment discontinued): 0
- Mean log10 viral titer/rectal swab (GE/ml), Overall viral titer shed at PIDs 1-27 (human norovirus (HuNoV); [5]): 4.86 log10 GE/ml
- Mean log10 viral titer/rectal swab (GE/ml), Tx (+) at PIDs 1-13 (human norovirus (HuNoV); [5]): 4.98 log10 GE/ml
- Mean log10 viral titer/rectal swab (GE/ml), Tx (−) at PIDs 14-27 (human norovirus (HuNoV); [5]): <4.70 log10 GE/ml
- inhibition of the activity of TGEV 3CL protease (in words) (TGEV 3CL protease): remarkably inhibited
- Mean duration of virus shedding (SEM), Tx (+) at PIDs 1-5 [3, 6]: 3.3 (0.3)
- Mean duration of virus shedding (SEM), Tx (−) at PIDs 6-14 [3, 6]: 4.0 (2.0)
- Mean log10 viral titer/rectal swab (GE/ml) (SEM), Overall viral titer shed at PIDs 1-14 [3, 6]: 5.17 (0.08)^B log10 GE/ml
- Mean log10 viral titer/rectal swab (GE/ml) (SEM), Tx (+) at PIDs 1-5 [3, 6]: 5.28 (0.13)^b,A log10 GE/ml
- Mean log10 viral titer/rectal swab (GE/ml) (SEM), Tx (−) at PIDs 6-14 [3, 6]: 5.11 (0.10)^B log10 GE/ml
- fecal viral RNA titers after treatment was discontinued vs 30% DMSO vehicle pigs (in words) [3, 6]: significantly lower fecal viral RNA titers
- Mean onset of virus shedding (PID) (SEM) ([3]; oral 100 mg/kg once a day for 5 days from day 1 after inoculation): 2.7 (0.3) PID
- effectiveness against the replication of HAV in cells (in words) (HAV): no or weak effectiveness
